Values quoted from earlier work as cited in patent US20250319118A1, “Prophylaxis and Treatment of Degraded Cartilage” (PhrixionLS, LLC, priority 2022, published 2025).

How the values were obtained:
[1] = tested on: osteoarthritis; settings: for Limitations: clinical outcomes / OA symptoms: clinical trials, osteoarthritis
[2] = tested on: osteoarthritis; settings: viscosupplementation

Bromelain
Limitations: clinical outcomes / OA symptoms ([1]; literature summary): Mixed results in clinical trials,

C[S+](CC[C@H](N)C(=O)[O-])C[C@H]1O[C@@H](n2cnc3c(N)ncnc32)[C@H](O)[C@@H]1O (some centres unmarked) [S-adenosyl-methionine (SAMe), S-adenosyl-methionine]
Limitations: clinical outcomes / OA symptoms ([1]; literature summary): Shown to improve OA symptoms,

C[C@H]1CN(C(=O)CC[C@@]2(C3CC3)NC(=O)NC2=O)CCN1c1cc(F)cc(F)c1 [GLPG1972, reference compound]
Efficacy versus placebo ([1]; Phase-2 study): No significant difference versus

hyaluronic acid [HA]
Benefit compared to placebo [2]: no significant benefit compared to placebo

B1: Sprifermin: Drug (Trial), investigated as disease-modifier for cartilage damage (protein, UniProt O76093 28-207, looked up)
Fibroblast growth factor 18: EENVDFRIHVENQTRARDDVSRKQLRLYQLYSRTSGKHIQVLGRRISARGEDGDKYAQLLVETDTFGSQVRIKGKETEFYLCMNRKGKLVGKPDGTSKECVFIEKVLENNYTALMSAKYSGWYVGFTKKGRPRKGPKTRENQQDVHFMKRYPKGQPELQKPFKYTTVTKRSRRIRPTHPA
Limitations: effect on cartilage (regeneration / protection) ([1]; clinical and preclinical data, literature summary): Demonstrated positive effects
